Assay results as given in patent US12084411B2, “Hinokitiol analogues, methods of preparing and pharmaceutical compositions thereof” (The Board of Trustees of the University of Illinois, priority 2018, dated 2024).

Tests used:
[1] = Iron efflux from liposomes using ferrozine; format: biochemical; details: for transport of ferrous and ferric iron across model liposomal membranes: 5 μM small molecule; for iron (III) efflux from POPC liposomes: 30 mM FeCl3 inside
Protocol: Iron (III) efflux from POPC liposomes was determined similar to previously reported (64). POPC liposomes were prepared as similarly reported (65) using 30 mM FeCl3, 62.5 mM citrate at pH=7.0 in 25 mM Mes/Tris buffer. External iron was removed by size exclusion chromatography using Sephadex G-50 and eluting with external buffer. External buffer consisted of 62.5 mM ascorbate at pH=7.0 in 25 mM Mes/Tris buffer. The liposomes were diluted to 1 mM phosphorus in this buffer. Ferrozine (Sigma 160601) was added (100X stock in external buffer) to a final concentration of 500 μM. Liposomal suspension was then transferred to a 96-well plate, and either DMSO or 5 μM hinokitiol, C2deOHino, deferiprone, or PIH (40X stock solution in DMSO) were added to initiate the experiment. The OD562 was determined every minute over the course of 2 hours using a plate-reader with continuous shaking at 30° C. to detect the relative amounts of external ferrozine-iron chelate at the indicated times. After 2 hours, liposomes were lysed with Triton-X to give 100% iron efflux.
Iron (II) efflux was performed as described above, however, the internal buffer alternatively consisted of 30 mM FeSO4, 62.5 mM ascorbate at pH=7.0 in 25 mM Mes/Tris buffer and Triton-X lysis was performed after 1 hour.
The rates of iron efflux with increasing concentrations of intraliposomal iron and/or hinokitiol were determined as described above using the indicated concentration of iron and hinokitiol. For the varying concentrations of iron, hinokitiol (10 μM) was added to the POPC liposomes, and the change in absorbance at 562 nm was determined over 2 hours. For the varying concentrations of hinokitiol, 30 mM intraliposomal iron was used as described above. The concentration of iron outside of liposomes was determined using the extinction coefficient for ferrozine-iron (27,900 M^−1 cm^−1) (66). This was used to determine the amount of iron released from liposomes at the indicated times using the total volume for each experiment. Rates of iron efflux were determined after one hour of hinokitiol treatment.

[2] = Metal efflux from liposomes using PhenGreen; format: biochemical
Protocol: Hinokitiol-promoted release of different divalent metals from POPC liposomes was performed by tracking the quenching of PhenGreen (Fisher P14312) similar to previously reported (67, 68). […] In all cases, liposomes were prepared using 5 mM of either FeCl2, MnCl2, CoCl2, NiCl2, ZnCl2, or CuCl2 added to the internal buffer. […] The liposome suspension was diluted to 1 mM of phosphorus. The liposome suspension was transferred to a 96-well plate, and either DMSO or 2 μM hinokitiol (from a 40X stock in DMSO) was added at t=2 min. […] After one hour, the liposomes were lysed with Triton-X and the fluorescence was recorded. […] The DMSO-treated and hinokitiol-treated liposomes had similar fluorescence quenching levels after lysis. […] The t1/2 values were calculated using an asymptotic fit in OriginPro. The t1/2 values indicate the time required to reach half of the maximum metal efflux for each metal.

[3] = system: FPN-deficient mice; assay: Acute injection of hinokitiol in flatiron mice, tissue iron; format: in vivo; details: 4 hours
Protocol: FIGS. 26A-26E show the results of acute injection of Hinokitiol in flatiron mice. Wild-type (+/+) and I (ffe/+) mice were administered hinokitiol by IP injection and were sacrificed after 4 h to measure iron content. (A) presents means f SEM (n=48/group). (B)-(E) present means±SEM (n=2/group). * P≤0.05, ** P≤0.005, and *** P≤0.001.
To characterize the effects of hinokitiol on iron mobilization and distribution in flatiron mice, hinokitiol was administered with increasing doses (1-50 mg/kg) via intraperitoneal (IP) injection. Mice were euthanized 4 hours post-administration, and blood and a range of tissues were collected. […] Total iron in a variety of tissues including liver and spleen was further measured by inductively coupled plasma mass spectrometry (ICP-MS).

[4] = system: fet3Δftr1Δ yeast; assay: Metal selectivity in yeast (ICP-MS); format: cell-based, Saccharomyces cerevisiae; details: 10 μM hinokitiol, 100 μM FeCl3
Protocol: Hinokitiol-mediated changes in intracellular metal levels were determined using growth rescue conditions from FIG. 13H and an adaptation of the Fe uptake study in FIG. 1G. Specifically, wild type and fet3Δftr1Δ yeast were grown in YPD media overnight, rinsed, and incubated in SD media without FeCl3 at 30° C. for 3 hours. Yeast were then resuspended at an OD600=0.50 in SD media (50 mM MES/Tris, pH=7.0) containing 100 μM FeCl3 and either DMSO vehicle or 10 μM hinokitiol. After 2.5 hours of incubation, cells were centrifuged at 5° C., rinsed twice with cold 10 mM EDTA in 50 mM Tris/HCl buffer (pH=6.5), and once with cold metal-free water. Cells were then lyophilized for 48 hours. The lyophilized cells were digested with a 5:1 mixture of HNO3:HCl and then subjected to an automated sequential microwave digestion in a CEM Discover SP-D microwave digester. The resulting clear solution was diluted in metal-free water, and elemental analysis was performed by ICP-MS.

[5] = system: FPN1-deficient J774 macrophages; assay: 55Fe release from FPN1-deficient J774 macrophages; format: cell-based, mouse; details: hepcidin-treated cells
Protocol: To knockdown FPN1 levels in wild type J774 cells, the cells were incubated with […] mouse hepcidin (Peptides International PLP-3773-PI) for 1 hour in J774 Complete media similar to previously described (41) before ^55Fe was loaded into J774 cells and ^55Fe release was determined.
J774 cells were grown in 12-well plates to ˜80% confluency. The cells were then treated with vehicle or hepcidin in fresh J774 Complete media (1 mL) and incubated at 37° C. for 1 hour. After incubation, the media was aspirated, and then a ^55Fe2Tf (50 nM) solution in J774 Complete media (1 mL) containing vehicle or hepcidin was added. The cells were incubated at 37° C. for 10 minutes, and the media was removed. The cells were rinsed with PBS (×2), and then rinsed with J774 Complete media (1 mL) for 10 minutes at 37° C. […] At the indicated times, aliquots (<100 μL) of the media were removed, diluted in scintillation cocktail, and radioactivity was determined by liquid scintillation counting. […] The cell lysate was diluted in scintillation cocktail and intracellular ^55Fe levels were determined by liquid scintillation counting. The % ^55Fe release was determined by the ratio of extracellular ^55Fe to total (intracellular+ extracellular) ^55Fe at the indicated times.

[6] = system: fet3Δftr1Δ yeast; assay: Growth rescue of iron-deficient yeast with small molecules on agar plates; format: cell-based, Saccharomyces cerevisiae; details: low iron SD-agar plates, 10 μM FeCl3

SMILES | transport of ferrous and ferric iron across model liposomal membranes [1] | iron (III) efflux from POPC liposomes [1] | Cu^II transport rate relative to Fe^II in liposomes [2] | liver total iron (ICP-MS) ([3]; 10 mg/kg IP) | liver non-heme iron ([3]; 1-50 mg/kg IP) | non-heme iron in other tissues ([3]; IP) | intracellular iron levels relative to vehicle-treated controls [4] | intracellular levels of manganese, cobalt, nickel, zinc, and copper [4] | iron release [5] | growth rescue of fet3Δftr1Δ yeast [6]
CC(C)c1cccc(=O)c(O)c1 [hinokitiol] | autonomously transports both ferrous and ferric iron | dose- and temperature-dependently promoted iron (III) efflux | 80 fold | releases iron from the liver | dose-dependent decrease | suggestive of reductions in non-heme iron | increased | unchanged | time- and dose-dependently restored iron release | highly effective
CC(C)c1cccc(=O)cc1 [C2deOHino, C2-deoxy hinokitiol] | minimal transport | no efflux up to 100 μM |  |  |  |  |  |  |  | 
